The values below come from ChEMBL document CHEMBL3616407, “The imidazo[1,2-a]pyridine ring system as a scaffold for potent dual phosphoinositide-3-kinase (PI3K)/mammalian target of rapamycin (mTOR) inhibitors” (Bioorg Med Chem Lett, 2015).

What is called Vd is a proportionality between amount in the body and measured concentration, not a real space. One may read the bioavailability as dose-corrected exposure relative to a reference, in per cent. A lower bioavailability goes with little systemic uptake. As usually defined, the AUC is concentration integrated over time. Read a low AUC as low exposure.

Common to all, as to type: ADME, organism-based
What all share (conditions): in vivo

Data set [1] is described as follows: Volume of distribution in iv dosed rat.
A short description of data set [2]: Oral bioavailability in rat at 2 mg/kg.
Data set [3] is described as follows: AUC in rat at 2 mg/kg, po.
The test system of data set [4] is Plasma. The experiment in a line: Unbound plasma concentration in mouse.

In data set [1], `COc1ncc(Nc2nc3ccc(C(C)(C)O)cn3c2-c2nc(C)nc(N)n2)cc1F` gave a volume of distribution (Vd) of 4.2 L/kg. Further, the bioavailability in data set [2] came out at 51%. This compound returned an exposure (AUC) in data set [3] of 640 ng·h/mL. The “Cp(f)” value in data set [4] was 84 nM.
